# Results as given in patent publication US10077261B2, “Imidazolin-5-one derivative useful as FASN inhibitors for the treatment of cancer” (Janssen Pharmaceutica NV, priority 2012, dated 2018).
# Assays:
# [1] = molecular target: T1, hFASN enzyme (full length) (Homo sapiens, UniProt P49327); experiment: Fatty Acid Synthase (FASN) inhibition scintillation proximity assay; assay type: biochemical; conditions: for inhibition at 10 µM: read-out: Human FASN % inhibition @ 10 μM, 10 μM test compound; for IC50: read-out: Human FASN pIC50 (converted)
# T1 construct: 10 μL hFASN enzyme (full length, 300 ng, purified in house); made in house
# In short: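 Compounds at 0.01–30 μM were mixed with 300 ng purified full-length enzyme in 100 mM KH2PO4 pH 7.5, 1 mM DTT. Substrates ³H-acetyl-CoA and malonyl-CoA were then converted, and bead addition stopped the reaction. Signal was normalised to low and high plate controls and fitted by 4-parameter nonlinear regression.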
# A2780 ovarian cells [2] = experiment: A2780 ovarian cell proliferation assay in lipid reduced medium, with palmitate (MTT); assay type: cell-based; conditions: Homo sapiens, A2780, 96 h; read-out: pIC50 A2780 Ovarian Cell, With Palmitate (converted)
# In short: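 Seeded cells were switched next day to lipid-reduced serum, exposed to compound and 25 μM palmitate complexed with fatty-acid-free BSA, and incubated 96 h. Proliferation was then determined by MTT absorbance at 544 nm, with a best-fit curve of signal against concentration.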
# [3] = molecular target: Fatty Acid Synthase Keto-reductase Domain (FASN KR) (Homo sapiens, UniProt P49327); experiment: Fatty Acid Synthase keto-reductase domain (FASN KR) inhibition, NADPH oxidation at 340 nm
# Protocol: After 20 minutes incubation at room temperature the plate was measured again (T2).
# The decrease in absorbance was calculated as (Absorbance before incubation T1)−(Absorbance following incubation T2).
# A plot of Controlmin versus test compound concentration was fitted to a 4-parameter logistic curve using a non-linear least squares regression method.
# A2780 ovarian cells [4] = experiment: A2780 ovarian cell proliferation assay in lipid reduced medium, without palmitate (MTT); assay type: cell-based; conditions: Homo sapiens, A2780, 96 h; read-out: pIC50 A2780 Ovarian Cell, Without Palmitate (converted)
# Fatty Acid Synthase Keto-reductase Domain (FASN KR), sequence (P49327 whole entry, the tested form may be a part): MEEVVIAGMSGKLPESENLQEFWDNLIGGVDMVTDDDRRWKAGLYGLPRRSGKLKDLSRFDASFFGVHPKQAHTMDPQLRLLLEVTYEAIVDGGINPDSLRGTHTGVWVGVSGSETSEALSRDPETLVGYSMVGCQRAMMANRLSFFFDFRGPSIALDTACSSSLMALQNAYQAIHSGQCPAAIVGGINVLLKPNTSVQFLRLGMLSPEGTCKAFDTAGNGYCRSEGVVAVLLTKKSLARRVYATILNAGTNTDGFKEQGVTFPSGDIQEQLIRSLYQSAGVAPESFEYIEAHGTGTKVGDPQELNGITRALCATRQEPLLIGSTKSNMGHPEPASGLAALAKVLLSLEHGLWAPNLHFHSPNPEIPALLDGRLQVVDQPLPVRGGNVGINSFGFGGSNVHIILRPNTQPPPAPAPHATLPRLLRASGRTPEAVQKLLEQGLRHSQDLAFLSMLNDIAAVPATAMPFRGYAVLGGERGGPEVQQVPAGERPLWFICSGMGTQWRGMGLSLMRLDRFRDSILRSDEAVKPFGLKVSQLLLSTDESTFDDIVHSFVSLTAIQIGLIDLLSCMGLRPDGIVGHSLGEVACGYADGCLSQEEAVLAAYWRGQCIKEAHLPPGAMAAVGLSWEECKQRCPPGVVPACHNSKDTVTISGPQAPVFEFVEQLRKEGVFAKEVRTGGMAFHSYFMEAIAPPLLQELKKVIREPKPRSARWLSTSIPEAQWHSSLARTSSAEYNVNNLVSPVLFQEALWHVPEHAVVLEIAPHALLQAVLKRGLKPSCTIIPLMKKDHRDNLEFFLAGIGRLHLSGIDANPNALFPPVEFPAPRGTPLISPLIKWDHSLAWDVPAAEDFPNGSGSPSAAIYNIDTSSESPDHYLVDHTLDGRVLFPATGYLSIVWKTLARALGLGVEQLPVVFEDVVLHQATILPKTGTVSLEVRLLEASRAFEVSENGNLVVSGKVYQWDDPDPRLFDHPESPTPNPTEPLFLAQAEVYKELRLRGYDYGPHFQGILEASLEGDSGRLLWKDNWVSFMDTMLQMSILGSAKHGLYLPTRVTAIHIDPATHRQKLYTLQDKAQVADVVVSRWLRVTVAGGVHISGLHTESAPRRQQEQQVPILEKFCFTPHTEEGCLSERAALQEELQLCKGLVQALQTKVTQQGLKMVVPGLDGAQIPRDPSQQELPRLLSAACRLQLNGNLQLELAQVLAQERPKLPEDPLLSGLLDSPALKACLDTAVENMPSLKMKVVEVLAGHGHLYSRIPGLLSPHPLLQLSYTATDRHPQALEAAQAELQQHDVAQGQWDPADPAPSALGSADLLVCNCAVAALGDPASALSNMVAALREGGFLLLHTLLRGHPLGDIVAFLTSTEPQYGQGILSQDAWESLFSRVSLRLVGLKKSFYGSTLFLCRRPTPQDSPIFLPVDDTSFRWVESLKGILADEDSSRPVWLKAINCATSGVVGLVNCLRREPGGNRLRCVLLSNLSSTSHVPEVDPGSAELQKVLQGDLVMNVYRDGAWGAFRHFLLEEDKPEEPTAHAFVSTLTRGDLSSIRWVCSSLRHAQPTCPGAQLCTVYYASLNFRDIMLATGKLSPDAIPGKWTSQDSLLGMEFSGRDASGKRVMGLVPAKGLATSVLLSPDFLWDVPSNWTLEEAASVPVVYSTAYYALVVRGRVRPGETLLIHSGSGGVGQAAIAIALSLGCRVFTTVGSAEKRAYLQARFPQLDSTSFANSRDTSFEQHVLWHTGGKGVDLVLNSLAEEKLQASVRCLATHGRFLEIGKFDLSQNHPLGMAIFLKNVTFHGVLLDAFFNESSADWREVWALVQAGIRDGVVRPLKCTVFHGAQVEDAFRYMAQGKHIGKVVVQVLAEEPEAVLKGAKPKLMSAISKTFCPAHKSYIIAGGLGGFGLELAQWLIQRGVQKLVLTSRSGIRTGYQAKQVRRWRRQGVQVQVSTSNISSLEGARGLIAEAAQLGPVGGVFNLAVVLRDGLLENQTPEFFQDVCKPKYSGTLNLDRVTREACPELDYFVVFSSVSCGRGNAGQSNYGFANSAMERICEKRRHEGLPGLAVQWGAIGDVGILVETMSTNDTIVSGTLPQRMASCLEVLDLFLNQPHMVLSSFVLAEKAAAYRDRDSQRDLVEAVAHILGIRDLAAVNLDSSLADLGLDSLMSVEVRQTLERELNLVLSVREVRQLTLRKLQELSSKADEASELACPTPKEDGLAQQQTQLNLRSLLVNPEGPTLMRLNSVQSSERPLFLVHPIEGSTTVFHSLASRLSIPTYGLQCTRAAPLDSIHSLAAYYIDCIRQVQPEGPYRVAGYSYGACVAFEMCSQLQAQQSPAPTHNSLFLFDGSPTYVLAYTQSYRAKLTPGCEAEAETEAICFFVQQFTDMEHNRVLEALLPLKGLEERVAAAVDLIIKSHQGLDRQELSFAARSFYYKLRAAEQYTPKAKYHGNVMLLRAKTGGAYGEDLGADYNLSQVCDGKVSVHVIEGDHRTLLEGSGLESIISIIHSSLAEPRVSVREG
# T1 sequence (P49327 whole entry): as the sequence (P49327 whole entry, the tested form may be a part) above
Compound,inhibition at 10 µM [1],IC50 [1],IC50 (A2780 ovarian cells [2]),IC50 [3],IC50 (A2780 ovarian cells [4])
"O=C(C1CC1)N1CCC(CN2C(=O)C3(CCCC3)N=C2c2ccc(-c3ccc4occc4c3)cc2)CC1 [compound 75, 1-[4-(1-Benzofuran-5-yl)phenyl]-3-{[1-(cyclopropylcarbonyl)piperidin-4-yl]methyl}-1,3-diazaspiro[4.4]non-1-en-4-one]",92.7%,0.513 µM,> 10 µM,2.14 µM,5.89 µM
"O=C(C1CC1)N1CCC(CN2C(=O)C3(CCCC3)N=C2c2ccc(-c3ccc4[nH]ccc4c3)cc2)CC1 [compound 76, 3-{[1-(Cyclopropylcarbonyl)piperidin-4-yl]methyl}-2-[4-(1H-indol-5-yl)phenyl]-1,3-diazaspiro[4.4]non-1-en-4-one]",99.2%,0.129 µM,> 10 µM,0.794 µM,0.513 µM
"O=C(C1CC1)N1CCC(CN2C(=O)C3(CCCC3)N=C2c2ccc(-c3ccc4cnccc4c3)cc2)CC1 [compound 77, 3-{[1-(Cyclopropylcarbonyl)piperidin-4-yl]methyl}-2-(4-isoquinolin-6-ylphenyl)-1,3-diazaspiro[4.4]non-1-en-4-one]",103%,0.174 µM,> 10 µM,0.871 µM,0.661 µM
"O=C(C1CC1)N1CC(CN2C(=O)C3(CCCC3)N=C2c2ccc(-c3ccc4cnccc4c3)cc2)C1 [compound 79, 3-{[1-(Cyclopropylcarbonyl)azetidin-3-yl]methyl}-2-(4-isoquinolin-6-ylphenyl)-1,3-diazaspiro[4.4]non-1-en-4-one]",108%,0.0617 µM,> 10 µM,0.324 µM,0.145 µM
"O=C(C1CC1)N1CC(CN2C(=O)C3(CCCC3)N=C2c2ccc(-c3ccc4occc4c3)cc2)C1 [compound 80, 2-[4-(1-Benzofuran-5-yl)phenyl]-3-{[1-(cyclopropylcarbonyl)azetidin-3-yl]methyl}-1,3-diazaspiro[4.4]non-1-en-4-one]",92.1%,0.437 µM,> 10 µM,1.48 µM,2.29 µM
"CN1CCC2(CC1)N=C(c1ccc(-c3ccc4[nH]ccc4c3)cc1)N(C[C@@H]1CCN(C(=O)C3CC3)C1)C2=O [compound 81, (R)-2-(4-(1H-Indol-5-yl)phenyl)-3-((1-(cyclopropanecarbonyl)pyrrolidin-3-yl)methyl)-8-methy-1,3,8-triazaspiro[4.5]dec-1-en-4-one]",109%,0.0912 µM,> 6.17 µM,0.186 µM,0.102 µM
O=C(C1CC1)N1CC[C@@H](CN2C(=O)C3(CCCC3)N=C2c2ccc(-c3ccc(Cl)cc3)cc2)C1 [compound 82],105%,0.214 µM,> 10 µM,1.2 µM,3.72 µM
"COc1ccc(-c2ccc(C3=NC4(CCCC4)C(=O)N3C[C@@H]3CCN(C(=O)C4CC4)C3)cc2)cc1 [compound 85, 3-{[(3R)-1-(Cyclopropylcarbonyl)pyrrolidin-3-yl]methyl}-2-(4′-methoxybiphenyl-4-yl)-1,3-diazaspiro[4.4]non-1-en-4-one]",97.9%,0.355 µM,> 10 µM,2.04 µM,~2.88 µM
"C=CC(=O)N1CC[C@@H](CN2C(=O)C3(CCN(Cc4ccccc4)CC3)N=C2c2ccc(-c3ccc4occc4c3)cc2)C1 [compound 90, 3-{[(3R)-1-Acryloylpyrrolidin-3-yl]methyl}-2-[4-(1-benzofuran-5-yl)phenyl]-8-benzyl-1,3,8-triazaspiro[4.5]dec-1-en-4-one]",101%,0.309 µM,> 10 µM,1.35 µM,6.31 µM
"O=C(C1CC1)N1CC[C@@H](CN2C(=O)C3(CCCC3)N=C2c2ccc(-c3cccc4[nH]ncc34)cc2)C1 [compound 92, 3-{[(3R)-1-(Cyclopropylcarbonyl)pyrrolidin-3-yl]methyl}-2-[4-(1H-indazol-4-yl)phenyl]-1,3-diazaspiro[4.4]non-1-en-4-one]",111%,0.0513 µM,> 10 µM,0.0776 µM,0.0457 µM
"Cc1cc(-c2ccc(Cl)cc2)ccc1C1=NC2(CCCC2)C(=O)N1C[C@@H]1CCN(C(=O)C2CC2)C1 [compound 93, 2-(4′-Chloro-3-methylbiphenyl-4-yl)-3-{[(3R)-1-(cyclopropylcarbonyl)pyrrolidin-3-yl]methyl}-1,3-diazaspiro[4.4]non-1-en-4-one]",116%,0.0759 µM,> 10 µM,0.263 µM,~2.09 µM
"Cc1cc(-c2ccc(Cl)cc2Cl)ccc1C1=NC2(CCCC2)C(=O)N1C[C@@H]1CCN(C(=O)C2CC2)C1 [compound 94, 3-{[(3R)-1-(Cyclopropylcarbonyl)pyrrolidin-3-yl]methyl}-2-(2′,4′-dichloro-3-methylbiphenyl-4-yl)-1,3-diazaspiro[4.4]non-1-en-4-one]",111%,0.145 µM,> 10 µM,0.891 µM,~2.14 µM
"Cc1ccc(-c2ccc(C3=NC4(CC4)C(=O)N3C[C@@H]3CCN(C(=O)C4CC4)C3)cc2)cc1 [compound 100, 6-{[(3R)-1-(Cyclopropylcarbonyl)pyrrolidin-3-yl]methyl}-5-(4′-methylbiphenyl-4-yl)-4,6-diazaspiro[2.4]hept-4-en-7-one]",110%,0.0741 µM,> 10 µM,0.209 µM,0.776 µM
"Cc1cccc(-c2ccc(C3=NC4(CC4)C(=O)N3C[C@@H]3CCN(C(=O)C4CC4)C3)cc2)c1 [compound 101, 6-{[(3R)-1-(Cyclopropylcarbonyl)pyrrolidin-3-yl]methyl}-5-(3′-methylbiphenyl-4-yl)-4,6-diazaspiro[2.4]hept-4-en-7-one]",112%,0.0813 µM,> 10 µM,0.38 µM,1.7 µM
"O=C(C1CC1)N1CC[C@@H](CN2C(=O)C3(CC3)N=C2c2ccc(-c3cccc(F)c3)cc2)C1 [compound 102, 6-{[(3R)-1-(Cyclopropylcarbonyl)pyrrolidin-3-yl]methyl}-5-(3′-fluorobiphenyl-4-yl)-4,6-diazaspiro[2.4]hept-4-en-7-one]",107%,0.209 µM,> 10 µM,1.07 µM,2.29 µM
"COc1ccc(-c2ccc(C3=NC4(CC4)C(=O)N3C[C@@H]3CCN(C(=O)C4CC4)C3)cc2)cc1 [compound 103, 6-{[(3R)-1-(Cyclopropylcarbonyl)pyrrolidin-3-yl]methyl}-5-(4′-methoxybiphenyl-4-yl)-4,6-diazaspiro[2.4]hept-4-en-7-one]",109%,0.0676 µM,> 10 µM,0.316 µM,0.851 µM
"O=C(C1CC1)N1CC[C@@H](CN2C(=O)C3(CC3)N=C2c2ccc(-c3ccc(F)cc3)cc2)C1 [compound 105, 6-{[(3R)-1-(Cyclopropylcarbonyl)pyrrolidin-3-yl]methyl}-5-(4′-fluorobiphenyl-4-yl)-4,6-diazaspiro[2.4]hept-4-en-7-one]",104%,0.1 µM,> 10 µM,0.501 µM,0.955 µM
"O=C(C1CC1)N1CC[C@@H](CN2C(=O)C3(CCNCC3)N=C2c2ccc(-c3ccc4cnccc4c3)cc2)C1 [compound 106, 3-{[(3R)-1-(Cyclopropylcarbonyl)pyrrolidin-3-yl]methyl}-2-(4-isoquinolin-6-ylphenyl)-1,3,8-triazaspiro[4.5]dec-1-en-4-one]",110%,0.112 µM,> 10 µM,0.603 µM,0.741 µM
"COc1cccc(-c2ccc(C3=NC4(CC4)C(=O)N3C[C@@H]3CCN(C(=O)C4CC4)C3)cc2)c1 [compound 113, 6-{[(3R)-1-(Cyclopropylcarbonyl)pyrrolidin-3-yl]methyl}-5-(3′-methoxybiphenyl-4-yl)-4,6-diazaspiro[2.4]hept-4-en-7-one]",109%,0.117 µM,> 10 µM,1.07 µM,~1.78 µM
"O=C(C1CC1)N1CC[C@@H](CN2C(=O)C3(CC3)N=C2c2ccc(-c3ccc(Cl)cc3)cc2)C1 [compound 114, 5-(4′-Chlorobiphenyl-4-yl)-6-{[(3R)-1-(cyclopropylcarbonyl)pyrrolidin-3-yl]methyl}-4,6-diazaspiro[2.4]hept-4-en-7-one]",107%,0.0759 µM,> 10 µM,0.234 µM,~0.832 µM
"O=C(C1CC1)N1CC[C@@H](CN2C(=O)C3(CC3)N=C2c2ccc(-c3cccc(O)c3)cc2)C1 [compound 115, 6-{[(3R)-1-(Cyclopropylcarbonyl)pyrrolidin-3-yl]methyl}-5-(3′-hydroxybiphenyl-4-yl)-4,6-diazaspiro[2.4]hept-4-en-7-one]",113%,0.0302 µM,> 10 µM,0.123 µM,~0.0617 µM
